Test results: ChEMBL document CHEMBL1201862, “PubChem BioAssay data set” (2004)
Values belong to the molecule of their own block, whether it stands above or below them. Activity calls are given as the source filed them.

Assays:
[1] = target: Paired box protein Pax-8 (Homo sapiens, UniProt Q06710); assay: inhibitors of PAX8-driven TPO luciferase reporter, dose response, RMG-I cells, cherry-pick (AID 687027); format: functional, cell-based;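 also: luciferase reporter driven by Pax8 target thyroperoxidase promoter measured by SteadyGlo luminescence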
[2] = PAX2 cell-based inhibition, dose response, selectivity assay for PAX8 inhibitor project, plate reader, dry powder samples (AID 743048); format: functional;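 also: HEK293 cells carrying a WT1 promoter luciferase reporter driven by expressed Pax2; potency is for inhibition of Pax2 driven reporter signal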
[3] = cytotoxicity in COV362 ovarian cancer cells, dose response, cytotoxicity control for PAX8 inhibitor project, cell-based, plate reader, dry powder, SA12 (AID 743144); format: functional
[4] = NIH:OVCAR-3 ovarian cancer cell cytotoxicity, dose response, PAX8 inhibitor project, plate reader, dry powder samples (AID 743044); format: functional, cell-based
[5] = PAX5 activity inhibitors, dose response, selectivity assay for PAX8 inhibitor project, cell-based, plate reader, dry powder samples (AID 743047); format: functional;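 also: HEK293 cells carrying a Pax5 driven CD19 promoter luciferase reporter; potency of inhibitors that lower reporter luminescence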
[6] = cytotoxicity in COV434 cells, dose response, cytotoxicity control for PAX8 inhibitor project, cell-based, plate reader, dry powder, SA7 (AID 743145); format: functional
[7] = cytotoxicity in OV-90 ovarian cancer cells, dose response, PAX8 inhibitor project, cell-based, plate reader, dry powder, SA8 (AID 743149); format: functional
[8] = cytotoxicity in OVCAR8 ovarian cancer cells, dose response, PAX8 project, cell-based, plate reader, dry powder samples (AID 743197); format: functional; settings: OVCAR-8
[9] = cytotoxicity dependent on PAX8, dose response, cell-based, plate reader, dry powder (AID 743049); format: functional
[10] = TRPM1 promoter luciferase reporter signal decrease, dose response, MITF inhibitor project, cell-based, SK-MEL-5, dry powder, set 9 (AID 651588); format: functional
[11] = A375 melanoma cell viability loss, dose response, counter-screen for MITF inhibitor project, CellTiter-Glo luminescence, dry powder, set 4 (AID 624364); format: functional, cell-based; settings: A-375;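 also: A375 melanoma cells are MITF independent so this is a counter screen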
[12] = A375 melanoma cell cytotoxicity, dose response, counter-screen for MITF inhibitor project, CellTiter-Glo luminescence, dry powder, set 7 (AID 624490); format: functional, cell-based; settings: A-375
[13] = MITF Orthogonal Assay: MALME3 CTG Assay Measured in Cell-Based System Using Plate Reader - 2084-04_Inhibitor_Dose_DryPowder_Activity_Set6.; format: functional; settings: MALME-3
[14] = SK-MEL-5 parental cell viability reduction, dose response, orthogonal assay for MITF inhibitor project, CellTiter-Glo luminescence, dry powder, set 8 (AID 651586); format: functional, cell-based
[15] = MALME3 melanoma cell viability reduction, dose response, orthogonal assay for MITF inhibitor project, CellTiter-Glo luminescence, dry powder, set 5 (AID 651584); format: functional, cell-based; settings: MALME-3
[16] = SK-MEL-5 parental line viability, dose response, MITF inhibitor project, cell-based, CellTiter-Glo, dry powder, set 6 (AID 624429); format: functional
[17] = MITF Orthogonal Assay: SK-MEL-5 CTG Assay Measured in Cell-Based System Using Plate Reader - 2084-02_Inhibitor_Dose_DryPowder_Activity_Set5.; format: functional
[18] = A375 melanoma cell cytotoxicity, dose response, counter-screen for MITF inhibitor project, CellTiter-Glo luminescence, dry powder, set 6 (AID 624488); format: functional, cell-based; settings: A-375
[19] = A375 melanoma cell viability loss, dose response, counter-screen for MITF modulator project, CellTiter-Glo luminescence, dry powder, set 9 (AID 651591); format: functional, cell-based; settings: A-375
[20] = MITF Measured in Cell-Based System Using Plate Reader - 2084-01_Inhibitor_Dose_DryPowder_Activity_Set6.; format: functional
[21] = MITF Measured in Cell-Based System Using Plate Reader - 2084-01_Inhibitor_Dose_DryPowder_Activity_Set7.; format: functional
[22] = cytotoxicity in primary human melanocytes, dose response, cytotoxicity control, cell-based, plate reader, dry powder (AID 651920); format: functional
[23] = T. cruzi growth inhibition in host cells, dose response, cell-based, plate reader, dry powder, set 2 (AID 652275); format: functional
[24] = P. falciparum 3D7-ScDHODH growth inhibitors, dose response, SYBR Green, dry powder samples (AID 1159570); format: functional, cell-based;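 also: parasite growth measured after 72 hours of compound exposure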
[25] = P. falciparum Dd2 growth inhibitors, dose response, SYBR Green, dry powder samples, set 9 (AID 1159568); format: functional, cell-based
[26] = P. falciparum Dd2 growth inhibitors, dose response, SYBR Green, cherry-picked samples (AID 1159567); format: functional, cell-based
[27] = P. falciparum Dd2 growth inhibitors, dose response, SYBR Green, dry powder samples (AID 1159566); format: functional, cell-based;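 also: potency for growth inhibition with lower SYBR green DNA signal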
[28] = P. falciparum ATP4 D1247Y mutant growth inhibitors, dose response, NITD609-resistant line, SYBR Green, dry powder (AID 1159571); format: functional, cell-based;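 also: parasites synchronized at ring stage by sorbitol before testing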
[29] = target: RNA-editing ligase 1, mitochondrial (Trypanosoma brucei brucei, UniProt P86926); assay: TbREL1 ligase inhibitors, dose response, biochemical, fluorescence, Trypanosoma brucei (AID 1117295); format: functional
[30] = P. falciparum Dd2 blood-stage growth inhibition, dose response, SYBR Green fluorescence, erythrocytes, dry powder, set 2 (AID 1159574); format: functional, cell-based
[31] = target: T1, Low molecular weight phosphotyrosine protein phosphatase (Homo sapiens, UniProt P24666); assay: LMPTP phosphatase inhibitors, dose response, biochemical, OMFP substrate, fluorescence intensity, set 2 (AID 743307); format: functional
T1 sequence (P24666 whole entry): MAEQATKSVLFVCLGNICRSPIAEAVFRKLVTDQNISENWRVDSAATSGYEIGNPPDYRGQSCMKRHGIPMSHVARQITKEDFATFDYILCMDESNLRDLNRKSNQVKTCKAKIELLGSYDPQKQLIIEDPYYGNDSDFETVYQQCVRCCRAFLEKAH

[32] = target: T1, Low molecular weight phosphotyrosine protein phosphatase; assay: LMPTP phosphatase inhibitors, colorimetric pNPP readout, dose response, orthogonal assay, biochemical, absorbance, pNPP substrate, LMPTP-A isoform, set 2 (AID 743308); format: functional
[33] = HeLa 2N DNA content increase, dose response, cell-based, IC50 (AID 1117349); format: functional
[34] = Dose-response inhibition of insulin secretion in a rat insulinoma line at 5 mM glucose (AID 1117331); format: functional, cell-based; settings: INS-1E
[35] = cells; format: functional, cell-based; settings: INS-1E
[36] = HeLa 4N DNA content increase, dose response, cell-based, IC50 (AID 1117351); format: functional

Paired box protein Pax-8, sequence (Q06710 whole entry): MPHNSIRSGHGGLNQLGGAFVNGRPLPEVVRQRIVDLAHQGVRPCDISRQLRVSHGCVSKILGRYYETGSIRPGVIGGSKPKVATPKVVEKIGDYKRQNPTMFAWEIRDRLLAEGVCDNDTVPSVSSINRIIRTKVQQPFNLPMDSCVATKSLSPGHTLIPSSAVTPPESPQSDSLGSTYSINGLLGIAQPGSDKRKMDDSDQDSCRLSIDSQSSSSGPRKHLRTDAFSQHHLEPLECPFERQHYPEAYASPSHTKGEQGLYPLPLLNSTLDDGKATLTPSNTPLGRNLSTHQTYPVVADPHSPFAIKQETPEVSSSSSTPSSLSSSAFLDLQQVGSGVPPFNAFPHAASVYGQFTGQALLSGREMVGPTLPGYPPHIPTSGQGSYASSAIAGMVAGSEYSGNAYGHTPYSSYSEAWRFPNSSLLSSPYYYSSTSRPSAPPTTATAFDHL
RNA-editing ligase 1, mitochondrial, sequence (P86926 whole entry): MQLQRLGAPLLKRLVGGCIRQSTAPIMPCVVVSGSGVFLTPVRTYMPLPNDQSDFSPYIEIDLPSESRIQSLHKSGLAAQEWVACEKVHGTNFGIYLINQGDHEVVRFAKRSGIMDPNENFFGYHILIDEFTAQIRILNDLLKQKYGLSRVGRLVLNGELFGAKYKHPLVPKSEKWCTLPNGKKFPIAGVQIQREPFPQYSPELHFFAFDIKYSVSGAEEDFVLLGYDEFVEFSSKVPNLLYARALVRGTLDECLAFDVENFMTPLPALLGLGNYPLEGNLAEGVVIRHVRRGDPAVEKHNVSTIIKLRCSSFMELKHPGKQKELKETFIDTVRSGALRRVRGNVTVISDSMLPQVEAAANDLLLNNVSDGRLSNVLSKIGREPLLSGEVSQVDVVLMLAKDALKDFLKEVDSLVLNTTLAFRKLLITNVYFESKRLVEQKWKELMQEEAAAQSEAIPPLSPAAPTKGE

SMILES: C[C@H](CO)N1C[C@H](C)[C@@H](CN(C)Cc2ccc(C(F)(F)F)cc2)Oc2ccc(NS(=O)(=O)c3ccccc3)cc2CC1=O
- AC50 [1]: 10.1 µM (active)
- AC50 [2]: 21 µM (active)
- AC50 [3]: > 70 µM (inactive)
- AC50 [4]: 51.5 µM (active)
- AC50 [5]: 23 µM (active)
- AC50 [6]: 46.2 µM (active)
- AC50 [7]: 54 µM (active)
- AC50 [8]: > 70 µM (inactive)
- AC50 [9]: 53.2 µM (active)

SMILES: COC1=C(NS(=O)(=O)c2ccc(Br)cc2)C(=O)c2ccccc2C1=O
- AC50 [10]: 38.3 µM (active)
- AC50 [11]: > 70 µM (inactive)
- AC50 [12]: > 70 µM (inactive)
- AC50 [13]: 34.9 µM (active)
- AC50 [14]: 19.8 µM (active)
- AC50 [15]: 34.9 µM (active)
- AC50 [16]: 21.5 µM (active)
- AC50 [17]: 12 µM (active)
- AC50 [18]: > 70 µM (inactive)
- AC50 [19]: > 70 µM (inactive)
- AC50 [20]: 14.8 µM (active)
- AC50 [21]: 10.4 µM (active)
- AC50 [22]: > 70 µM (inactive)

SMILES: CC(C)(C)[S+]([O-])N1Cc2cc(C(=O)NCc3ccc4c(c3)OCO4)nc(-c3cccc(-c4cc5ccccc5o4)c3)c2[C@H]1CCO (stereo partly specified)
- AC50 [23]: 0.361 µM (active)
- AC50 [24]: 1.46 µM (active)
- AC50 [25]: 2.2 µM (active)
- AC50 [26]: 1.51 µM (active)
- AC50 [27]: 1.16 µM (active)
- AC50 [28]: 1.21 µM (active)

- IC50 [29]: > 96.6 µM (inactive)
SMILES: C#CCOCCOCCOCCNc1nc(N2CCN(C(=O)[C@H](CCCCN)n3cc([C@@H](N)CC(C)C)nn3)CC2)nc(N2CCN(C(=O)[C@H](Cc3cc4ccccc4[nH]3)n3cc([C@@H](N)CC(C)C)nn3)CC2)n1

SMILES: COc1cccc(C#Cc2ccc([C@@H]3[C@@H](CO)N4C(=O)CN(C(=O)Cc5ccccc5)C[C@@H]34)cc2)c1
- AC50 [30]: 4.88 µM (active)

- IC50 [31]: 2.87 µM (active)
- IC50 [32]: 7.13 µM (active)
SMILES: COc1ccccc1-c1cc(NCCCN2CCCCC2)c2ccccc2n1

SMILES: Cc1ccc(CCn2c3c(c4cc(Cl)ccc42)CN(C)CC3)cn1 [DORASTINE]
- IC50 [33]: > 10 µM (inactive)
- IC50 [34]: 4.2 µM (active)
- IC50 [35]: > 33.3 µM (inactive)
- IC50 [36]: > 10 µM (inactive)
